Experimental data taken from patent publication US8735414B2 (priority 2009, dated 2014).

Tested on: bicistronic HCV replicon (replicon RNA, GenBank Accession No. AJ242654)
Test: HCV Replicon Assay
Assay type: cell-based
Settings: Hepatitis C virus, 72 h, read-out: Replicon IC50

Compound	IC50 [nM]
C[C@H](NS(=O)(=O)c1ccc(-c2c(C#N)c3cc(F)ccc3n2C2CCCC2)nc1)C(F)(F)F [compound 435, 6-(3-cyano-1-cyclopentyl-5-fluoro-1H-indol-2-yl)-N-[(2S)-1,1,1-trifluoropropan-2-yl]pyridine-3-sulfonamide]	< 500
C[C@H](NS(=O)(=O)c1ccc(-c2cc3cc(F)c(OC(F)F)cc3n2C2CCC2)nc1)C(F)(F)F [compound 727, 6-[1-cyclobutyl-6-(difluoromethoxy)-5-fluoro-1H-indol-2-yl]-N-[(2S)-1,1,1-trifluoropropan-2-yl]pyridine-3-sulfonamide]	< 500
Cc1cc2c(cc1F)c(Cl)c(-c1ccc(S(=O)(=O)N[C@@H](C)C(F)(F)F)cn1)n2-c1nncs1 [compound 972, 6-[3-chloro-5-fluoro-6-methyl-1-(1,3,4-thiadiazol-2-yl)-1H-indol-2-yl]-N-[(2S)-1,1,1-trifluoropropan-2-yl]pyridine-3-sulfonamide]	2000 to 5000
CCc1cc2c(cc1F)c(C(N)=O)c(-c1ccc(S(=O)(=O)N[C@@H](C)C(F)(F)F)cn1)n2-c1cccnc1 [compound 1040, 6-ethyl-5-fluoro-1-(pyridin-3-yl)-2-(5-{[(2S)-1,1,1-trifluoropropan-2-yl]sulfamoyl}pyridin-2-yl)-1H-indole-3-carboxamide]	< 500
C[C@H](NS(=O)(=O)c1ccc(-c2c(C#N)c3ccc(OC(F)(F)F)cc3n2C2CCCCC2)nc1)C(F)(F)F [compound 459, 6-[3-cyano-1-cyclohexyl-6-(trifluoromethoxy)-1H-indol-2-yl]-N-[(2S)-1,1,1-trifluoropropan-2-yl]pyridine-3-sulfonamide]	< 500
COc1ccnc(-n2c(-c3ccc(S(=O)(=O)N[C@@H](C)C(F)(F)F)cn3)c(C#N)c3cc(F)c(C)cc32)n1 [compound 866, 6-[3-cyano-5-fluoro-1-(4-methoxypyrimidin-2-yl)-6-methyl-1H-indol-2-yl]-N-[(2S)-1,1,1-trifluoropropan-2-yl]pyridine-3-sulfonamide]	500 to 2000
Cc1cnc(-n2c(-c3ccc(S(=O)(=O)N[C@@H](C)C(F)(F)F)cn3)c(C#N)c3cc(F)c(C)cc32)cn1 [compound 865, 6-[3-cyano-5-fluoro-6-methyl-1-(5-methylpyrazin-2-yl)-1H-indol-2-yl]-N-[(2S)-1,1,1-trifluoropropan-2-yl]pyridine-3-sulfonamide]	< 500
CCc1cc2c(cc1F)c(C#N)c(-c1ccc(S(=O)(=O)N[C@@H](C)C(F)(F)F)cn1)n2-c1ncccn1 [compound 704, 6-[3-cyano-6-ethyl-5-fluoro-1-(pyrimidin-2-yl)-1H-indol-2-yl]-N-[(2S)-1,1,1-trifluoropropan-2-yl]pyridine-3-sulfonamide]	< 500
N#Cc1c(-c2ccc(S(=O)(=O)NC(CF)CF)cn2)n(C2CCCC2)c2ccc(C(F)F)cc12 [compound 535, 6-[3-cyano-1-cyclopentyl-5-(difluoromethyl)-1H-indol-2-yl]-N-(1,3-difluoropropan-2-yl)pyridine-3-sulfonamide]	< 500
C[C@H](NS(=O)(=O)c1ccc(-c2c(C#N)c3ccc(Cl)cc3n2C2CCCC2)nc1)C(F)(F)F [compound 364, 6-(6-chloro-3-cyano-1-cyclopentyl-1H-indol-2-yl)-N-[(2S)-1,1,1-trifluoropropan-2-yl]pyridine-3-sulfonamide]	< 500
C[C@@H](NS(=O)(=O)c1ccc(-c2c(C#N)c3cc(F)c(OC(F)F)cc3n2-c2ccccn2)nc1)C(F)(F)F [compound 670, 6-[3-cyano-6-(difluoromethoxy)-5-fluoro-1-(pyridin-2-yl)-1H-indol-2-yl]-N-[(2R)-1,1,1-trifluoropropan-2-yl]pyridine-3-sulfonamide]	< 500
N#Cc1c(-c2ccc(S(=O)(=O)NC(CF)CF)cn2)n(CC2CC2)c2cc(CC(F)F)ccc12 [compound 616, 6-[3-cyano-1-(cyclopropylmethyl)-6-(2,2-difluoroethyl)-1H-indol-2-yl]-N-(1,3-difluoropropan-2-yl)pyridine-3-sulfonamide]	< 500
C[C@H](NS(=O)(=O)c1ccc(-c2c(C#N)c3ccc(OC(F)(F)F)cc3n2C2CCC2)nc1)C1CC1 [compound 152, 6-[3-cyano-1-cyclobutyl-6-(trifluoromethoxy)-1H-indol-2-yl]-N-[(1S)-1-cyclopropylethyl]pyridine-3-sulfonamide]	< 500
N#Cc1c(-c2ccc(S(=O)(=O)NC(CF)CF)cn2)n(CC2CC2)c2ccc(Cl)cc12 [compound 73, 6-[5-chloro-3-cyano-1-(cyclopropylmethyl)-1H-indol-2-yl]-N-(1,3-difluoropropan-2-yl)pyridine-3-sulfonamide]	< 500
CC(C)NS(=O)(=O)c1ccc(-c2c(C#N)c3cc(Cl)ccc3n2C2CCC2)cn1 [compound 28, 5-(5-chloro-3-cyano-1-cyclobutyl-1H-indol-2-yl)-N-(propan-2-yl)pyridine-2-sulfonamide]	2000 to 5000
C[C@H](NS(=O)(=O)c1ccc(-c2c(C#N)c3cc(Cl)c(OC(F)F)cc3n2C2CCC2)nc1)C(F)(F)F [compound 636, 6-[5-chloro-3-cyano-1-cyclobutyl-6-(difluoromethoxy)-1H-indol-2-yl]-N-[(2S)-1,1,1-trifluoropropan-2-yl]pyridine-3-sulfonamide]	< 500
Cc1cc2c(cc1F)c(C#N)c(-c1ccc(S(=O)(=O)N[C@@H](C)C(F)(F)F)cn1)n2-c1ncc(F)cn1 [compound 924, 6-[3-cyano-5-fluoro-1-(5-fluoropyrimidin-2-yl)-6-methyl-1H-indol-2-yl]-N-[(2S)-1,1,1-trifluoropropan-2-yl]pyridine-3-sulfonamide]	< 500
C[C@H](NS(=O)(=O)c1ccc(-c2c(C#N)c3ccc(CF)cc3n2C2CCC2)nc1)C1CC1 [compound 317, 6-[3-cyano-1-cyclobutyl-6-(fluoromethyl)-1H-indol-2-yl]-N-[(1S)-1-cyclopropylethyl]pyridine-3-sulfonamide]	< 500
CCc1cc2c(cc1F)c(C(N)=O)c(-c1ccc(S(=O)(=O)N[C@@H](C)C(F)(F)F)cn1)n2-c1ccc(Cl)cn1 [compound 1043, 1-(5-chloropyridin-2-yl)-6-ethyl-5-fluoro-2-(5-{[(2S)-1,1,1-trifluoropropan-2-yl]sulfamoyl}pyridin-2-yl)-1H-indole-3-carboxamide]	< 500
C[C@H](NS(=O)(=O)c1ccc(-c2c(C#N)c3cc(F)c(C4(C)OCCO4)cc3n2-c2ncccn2)nc1)C(F)(F)F [compound 927, 6-[3-cyano-5-fluoro-6-(2-methyl-1,3-dioxolan-2-yl)-1-(pyrimidin-2-yl)-1H-indol-2-yl]-N-[(2S)-1,1,1-trifluoropropan-2-yl]pyridine-3-sulfonamide]	< 500
N#Cc1c(-c2ncc(S(=O)(=O)NC(CF)CF)cn2)n(C2CCC2)c2cc(C3CC3)c(F)cc12 [compound 145, 2-(3-cyano-1-cyclobutyl-6-cyclopropyl-5-fluoro-1H-indol-2-yl)-N-(1,3-difluoropropan-2-yl)pyrimidine-5-sulfonamide]	< 500
[2H]C([2H])(C)c1cc2c(cc1F)c(C#N)c(-c1ccc(S(=O)(=O)N[C@@H](C)C(F)(F)F)cn1)n2-c1ncccn1 [compound 1078, 6-{3-cyano-6-[(1,1-dideuterium)ethyl]-5-fluoro-1-(pyrimidin-2-yl)-1H-indol-2-yl}-N-[(2S)-1,1,1-trifluoropropan-2-yl]pyridine-3-sulfonamide]	< 500
